Results from US9850283B2, “Macrocyclic inhibitors of the PD-1/PD-L1 and CD80(B7-1)/PD-L1 protein/protein interactions” (BRISTOL-MYERS SQUIBB COMPANY, priority 2013, dated 2017).
Read-outs that look alike come from different tables or passages of the source. Starred links: 1 amine or outer side, 2 acyl side, 3 side chain; linkers in the order of their positions; H or OH if unused. Positions of bridges follow the written chain, without caps; N, C: chain ends. Non-standard residues stand in square brackets, D forms with d. Residues, ends and D or L forms follow the SMILES beside them. ξ: configuration not given here. X13 = COc1ccc2c(O[C@@H]3C[C@@H](C(=O)[*:2])N([*:1])C3)nccc2c1; X19 = CCCOc1cccc(-c2[nH]c3ccccc3c2C[C@H](N[*:1])C(=O)[*:2])c1; X5 = CCCOc1ccc(-c2[nH]c3ccccc3c2C[C@H](N[*:1])C(=O)[*:2])cc1; X6 = O=C([C@H](Cc1c(-c2ccc(F)cc2)[nH]c2ccccc12)N[*:1])[*:2]; X8 = COc1cccc(-c2[nH]c3ccccc3c2C[C@H](N[*:1])C(=O)[*:2])c1; X9 = O=C([C@@H]1C[C@@H](Oc2nc3ccccc3cc2Br)CN1[*:1])[*:2]; Trp(1-CH2COOH) = N[C@@H](Cc1cn(CC(=O)O)c2ccccc12)C(=O)O; Trp(2-Ph) = N[C@@H](Cc1c(-c2ccccc2)[nH]c2ccccc12)C(=O)O; Tyr(3-Br) = N[C@@H](Cc1ccc(O)c(Br)c1)C(=O)O; cisHyp = O=C(O)[C@@H]1C[C@H](O)CN1; Hyp = O=C(O)[C@@H]1C[C@@H](O)CN1; Pip(4-aza) = O=C(O)[C@@H]1CNCCN1; dNMeNle = CCCC[C@@H](NC)C(=O)O; NMeNle = CCCC[C@H](NC)C(=O)O; ξR = N=C(N)NCCCC(N)C(=O)O; NMeA = CN[C@@H](C)C(=O)O; Dab = NCC[C@H](N)C(=O)O; Dap = NC[C@H](N)C(=O)O; Sar = CNCC(=O)O

How the values were obtained:
[1] = target: T1, LK35.2-hPD-L1 cells / PE-labeled PD-1-Ig (Homo sapiens, UniProt Q9NZQ7); test: LK35.2-hPD-L1 cell binding high-content screening assay; type: cell-based; settings: cell binding assay, cell line not given
T1 construct: expressed in transfected cells; host or cells: LK35.2 mouse B cell line
Method in brief: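 Mouse LK35.2 B cells stably over-expressing human PD-L1, cultured overnight, treated with compound plus PE-labeled human PD-1-Ig (1 nM final) in RPMI/10% FCS for 1 h at 37 °C. After washing, bound fluorescence quantified by high-content imaging.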

Human PD-L1/PD-1 = target: T2, Human PD-L1/PD-1 (Homo sapiens, UniProt Q9NZQ7); test: HTRF PD-1-Ig/PD-L1-His binding assay (human PD-L1)
T2 construct: made in house; host or cells: HEK293T
Method in brief: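 HTRF read-out: Eu cryptate anti-Ig mAb 1 nM final, APC anti-His mAb 20 nM final, added over the binding reaction. Proteins were PD-1-Ig and PD-L1-His ectodomain fusions. Buffer was dPBS, 0.1% BSA, 0.05% Tween-20.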

[2] = cluster symbol, read-out: CBA IC50 cluster
[3] = cluster symbol, read-out: HTRF IC50 cluster

T1 sequence (Q9NZQ7 19-290): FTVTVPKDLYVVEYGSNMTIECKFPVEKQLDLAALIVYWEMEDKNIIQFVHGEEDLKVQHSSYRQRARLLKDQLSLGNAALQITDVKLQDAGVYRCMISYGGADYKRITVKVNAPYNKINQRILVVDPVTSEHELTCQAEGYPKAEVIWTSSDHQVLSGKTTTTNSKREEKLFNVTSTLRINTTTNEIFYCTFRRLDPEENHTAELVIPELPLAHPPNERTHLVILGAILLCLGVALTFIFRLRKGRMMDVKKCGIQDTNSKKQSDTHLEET
T2 sequence (Q9NZQ7 with tags, fused parts or gaps): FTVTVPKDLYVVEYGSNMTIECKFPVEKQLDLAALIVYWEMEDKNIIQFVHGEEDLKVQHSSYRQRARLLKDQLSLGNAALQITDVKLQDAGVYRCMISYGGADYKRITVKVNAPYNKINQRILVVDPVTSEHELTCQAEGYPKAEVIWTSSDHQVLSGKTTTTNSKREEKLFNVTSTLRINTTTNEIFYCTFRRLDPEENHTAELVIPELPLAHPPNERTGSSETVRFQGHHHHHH

Row | Structure (SMILES) | IC50 [1, 2] [nM] | IC50 (Human PD-L1/PD-1; [3]) [nM] | IC50 ([1]; value given instead of cluster, read-out: CBA IC50 value) [nM] | IC50 (Human PD-L1/PD-1; value given instead of cluster, read-out: HTRF IC50 value) [nM]
1 | CCCC[C@H]1C(=O)N2CCC[C@@H]2C(=O)N[C@@H](CCN)C(=O)N[C@H](C(=O)NCC(N)=O)CSCC(=O)N[C@@H](Cc2ccc(O)c(Br)c2)C(=O)N(C)[C@@H](C)C(=O)N[C@@H](CC(N)=O)C(=O)N2CCC[C@H]2C(=O)N[C@@H](Cc2cnc[nH]2)C(=O)N[C@@H](CC(C)C)C(=O)N2C[C@H](O)C[C@H]2C(=O)N[C@@H](Cc2c[nH]c3ccccc23)C(=O)N[C@@H](CCN)C(=O)N[C@@H](Cc2c[nH]c3ccccc23)C(=O)N1C [Example 6044] ({CH2CO}-[Tyr(3-Br)][NMeA]NPHL[Hyp]W[Dab]W[NMeNle][dP][Dab]CG-NH2; thioether N-14) | > 74.3 | 6.76 to 30.3 | – | –
2 | CCCC[C@H]1C(=O)N2CCC[C@@H]2C(=O)N[C@@H](CCN)C(=O)N[C@H](C(=O)NCC(N)=O)CSCC(=O)N[C@@H](Cc2ccc(O)c(Br)c2)C(=O)N(C)[C@@H](C)C(=O)N[C@@H](CC(N)=O)C(=O)N2CCC[C@H]2C(=O)N[C@@H](Cc2cnc[nH]2)C(=O)N[C@@H](CC(C)C)C(=O)N(C)CC(=O)N[C@@H](Cc2c[nH]c3ccccc23)C(=O)N[C@@H](CCN)C(=O)N[C@@H](Cc2c[nH]c3ccccc23)C(=O)N1C [Example 6045] ({CH2CO}-[Tyr(3-Br)][NMeA]NPHL[Sar]W[Dab]W[NMeNle][dP][Dab]CG-NH2; thioether N-14) | – | – | 625 | 90.1
3 | CCCC[C@H]1C(=O)N(C)[C@@H](CCCC)C(=O)N[C@@H](CC(C)C)C(=O)N[C@H](C(=O)NCC(N)=O)CSCC(=O)N[C@@H](Cc2ccc(O)cc2)C(=O)N(C)[C@@H](C)C(=O)N[C@@H](CC(N)=O)C(=O)N2CCC[C@H]2C(=O)N[C@@H](CN)C(=O)N[C@@H](CC(C)C)C(=O)N2C[C@H](Oc3nccc4cc(OC)ccc34)C[C@H]2C(=O)N[C@@H](Cc2c[nH]c3ccccc23)C(=O)N[C@@H](CCN)C(=O)N[C@@H](Cc2c[nH]c3ccccc23)C(=O)N1C [Example 6048] ({CH2CO}-Y[NMeA]NP[Dap]L[X13]W[Dab]W[NMeNle][NMeNle]LCG-NH2; thioether N-14) | 4.78 to 72.9 | 6.76 to 30.3 | – | –
4 | CCCC[C@H]1C(=O)N(C)[C@@H](CCCC)C(=O)N[C@@H](CC(C)C)C(=O)N[C@H](C(=O)NCC(N)=O)CSCC(=O)N[C@@H](Cc2ccc(O)cc2)C(=O)N(C)[C@@H](C)C(=O)N[C@@H](CC(N)=O)C(=O)N2CCC[C@H]2C(=O)N[C@@H](CN)C(=O)N[C@@H](CC(C)C)C(=O)N2C[C@H](Oc3nc4ccccc4cc3Br)C[C@H]2C(=O)N[C@@H](Cc2c[nH]c3ccccc23)C(=O)N[C@@H](CCN)C(=O)N[C@@H](Cc2c[nH]c3ccccc23)C(=O)N1C [Example 6049] ({CH2CO}-Y[NMeA]NP[Dap]L[X9]W[Dab]W[NMeNle][NMeNle]LCG-NH2; thioether N-14) | 4.78 to 72.9 | 0.385 to 6.74 | – | –
5 | CCCC[C@H]1C(=O)N(C)[C@@H](CCCC)C(=O)N[C@@H](CC(C)C)C(=O)N[C@H](C(=O)NCC(N)=O)CSCC(=O)N[C@@H](Cc2ccc(O)cc2)C(=O)N(C)[C@@H](C)C(=O)N[C@@H](CC(N)=O)C(=O)N2CCC[C@H]2C(=O)N[C@@H](CN)C(=O)N[C@@H](CC(C)C)C(=O)N2CCNC[C@H]2C(=O)N[C@@H](Cc2c[nH]c3ccccc23)C(=O)N[C@@H](CCN)C(=O)N[C@@H](Cc2c[nH]c3ccccc23)C(=O)N1C [Example 6050] ({CH2CO}-Y[NMeA]NP[Dap]L[Pip(4-aza)]W[Dab]W[NMeNle][NMeNle]LCG-NH2; thioether N-14) | 4.78 to 72.9 | 0.385 to 6.74 | – | –
6 | CCCC[C@H]1C(=O)N(C)[C@@H](CCCC)C(=O)NC(CCCNC(=N)N)C(=O)N[C@H](C(=O)NCC(N)=O)CSCC(=O)N[C@@H](Cc2ccc(O)cc2)C(=O)N(C)[C@@H](C)C(=O)N[C@@H](CC(N)=O)C(=O)N2CCC[C@H]2C(=O)N[C@@H](CN)C(=O)N[C@@H](CC(C)C)C(=O)N2C[C@H](O)C[C@H]2C(=O)N[C@@H](Cc2c[nH]c3ccccc23)C(=O)N[C@@H](CO)C(=O)N[C@@H](Cc2c(-c3cccc(OC)c3)[nH]c3ccccc23)C(=O)N1C (stereo partly shown) [Example 7003] ({CH2CO}-Y[NMeA]NP[Dap]L[Hyp]WS[X8][NMeNle][NMeNle][ξR]CG-NH2; thioether N-14) | 4.78 to 72.9 | 0.385 to 6.74 | – | –
7 | CCCC[C@H]1C(=O)N(C)[C@@H](CCCC)C(=O)NC(CCCNC(=N)N)C(=O)N[C@H](C(=O)NCC(N)=O)CSCC(=O)N[C@@H](Cc2ccc(O)cc2)C(=O)N(C)[C@@H](C)C(=O)N[C@@H](CC(N)=O)C(=O)N2CCC[C@H]2C(=O)N[C@@H](CN)C(=O)N[C@@H](CC(C)C)C(=O)N2C[C@H](O)C[C@H]2C(=O)N[C@@H](Cc2c[nH]c3ccccc23)C(=O)N[C@@H](CO)C(=O)N[C@@H](Cc2c(-c3cccc(OCCC)c3)[nH]c3ccccc23)C(=O)N1C (stereo partly shown) [Example 7004] ({CH2CO}-Y[NMeA]NP[Dap]L[Hyp]WS[X19][NMeNle][NMeNle][ξR]CG-NH2; thioether N-14) | 4.78 to 72.9 | 0.385 to 6.74 | – | –
8 | CCCC[C@H]1C(=O)N(C)[C@@H](CCCC)C(=O)NC(CCCNC(=N)N)C(=O)N[C@H](C(=O)NCC(N)=O)CSCC(=O)N[C@@H](Cc2ccc(O)cc2)C(=O)N(C)[C@@H](C)C(=O)N[C@@H](CC(N)=O)C(=O)N2CCC[C@H]2C(=O)N[C@@H](CN)C(=O)N[C@@H](CC(C)C)C(=O)N2C[C@H](O)C[C@H]2C(=O)N[C@@H](Cc2c[nH]c3ccccc23)C(=O)N[C@@H](CO)C(=O)N[C@@H](Cc2c(-c3ccc(OCCC)cc3)[nH]c3ccccc23)C(=O)N1C (stereo partly shown) [Example 7005] ({CH2CO}-Y[NMeA]NP[Dap]L[Hyp]WS[X5][NMeNle][NMeNle][ξR]CG-NH2; thioether N-14) | 4.78 to 72.9 | 0.385 to 6.74 | – | –

Now from value to compound:

Row | IC50 [1, 2] [nM] | IC50 (Human PD-L1/PD-1; [3]) [nM] | IC50 ([1]; value given instead of cluster, read-out: CBA IC50 value) [nM] | IC50 (Human PD-L1/PD-1; value given instead of cluster, read-out: HTRF IC50 value) [nM] | Structure (SMILES)
9 | 0.158 to 4.71 | 0.385 to 6.74 | – | – | CCCC[C@@H]1C(=O)N[C@@H](CC(C)C)C(=O)N[C@H](C(=O)NCC(N)=O)CSCC(=O)N[C@@H](Cc2ccc(O)cc2)C(=O)N(C)[C@@H](C)C(=O)N[C@@H](CC(N)=O)C(=O)N2CCC[C@H]2C(=O)N[C@@H](CN)C(=O)N[C@@H](CC(C)C)C(=O)N2C[C@@H](O)C[C@H]2C(=O)N[C@@H](Cc2c[nH]c3ccccc23)C(=O)N[C@@H](CCN)C(=O)N[C@@H](Cc2cn(CC(=O)O)c3ccccc23)C(=O)N(C)[C@@H](CCCC)C(=O)N1C [Example 6046] ({CH2CO}-Y[NMeA]NP[Dap]L[cisHyp]W[Dab][Trp(1-CH2COOH)][NMeNle][dNMeNle]LCG-NH2; thioether N-14)
10 | 0.158 to 4.71 | 0.385 to 6.74 | – | – | CCCC[C@H]1C(=O)N(C)[C@@H](CCCC)C(=O)NC(CCCNC(=N)N)C(=O)N[C@H](C(=O)NCC(N)=O)CSCC(=O)N[C@@H](Cc2ccc(O)cc2)C(=O)N(C)[C@@H](C)C(=O)N[C@@H](CC(N)=O)C(=O)N2CCC[C@H]2C(=O)N[C@@H](Cc2cnc[nH]2)C(=O)N[C@@H](CC(C)C)C(=O)N2CCC[C@H]2C(=O)N[C@@H](Cc2c[nH]c3ccccc23)C(=O)N[C@@H](CO)C(=O)N[C@@H](Cc2c(-c3ccccc3)[nH]c3ccccc23)C(=O)N1C (stereo partly shown) [Example 7001] ({CH2CO}-Y[NMeA]NPHLPWS[Trp(2-Ph)][NMeNle][NMeNle][ξR]CG-NH2; thioether N-14)
11 | 0.158 to 4.71 | 0.385 to 6.74 | – | – | CCCC[C@H]1C(=O)N(C)[C@@H](CCCC)C(=O)NC(CCCNC(=N)N)C(=O)N[C@H](C(=O)NCC(N)=O)CSCC(=O)N[C@@H](Cc2ccc(O)cc2)C(=O)N(C)[C@@H](C)C(=O)N[C@@H](CC(N)=O)C(=O)N2CCC[C@H]2C(=O)N[C@@H](CN)C(=O)N[C@@H](CC(C)C)C(=O)N2C[C@H](O)C[C@H]2C(=O)N[C@@H](Cc2c[nH]c3ccccc23)C(=O)N[C@@H](CO)C(=O)N[C@@H](Cc2c(-c3ccc(F)cc3)[nH]c3ccccc23)C(=O)N1C (stereo partly shown) [Example 7002] ({CH2CO}-Y[NMeA]NP[Dap]L[Hyp]WS[X6][NMeNle][NMeNle][ξR]CG-NH2; thioether N-14)
